Results: patent US10167262B2, “Herbicidal substituted 3-arylpyrazoles” (FMC CORPORATION, priority 2014, dated 2019)

Columns and labels:
Type in all cases: in vivo
[1] = tested on: winter barley (Hordeum vulgare); experiment: Test C postemergence greenhouse test, plant response rating 0-100; details: for Plant response rating, Barley: scale 0 to 100
Outline: (§1)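 Scores run from 0, meaning no effect, to 100, meaning complete control, and come from visual comparison with untreated controls. Treatment was a postemergence application to plants 2–18 cm tall. Assessment followed 13 to 15 days of greenhouse growth.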

[2] = tested on: windgrass (Apera spica-venti); experiment: as above; details: for Plant response rating, Windgrass: scale 0 to 100
Outline: as §1

[3] = tested on: pigweed (Amaranthus retroflexus); experiment: Test C pre-/postemergence greenhouse test, plant response rating 0-100; details: Postemergence; for Plant response rating, Pigweed: scale 0 to 100
Outline: (§2)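 Formulated in solvent with surfactant, test chemicals were sprayed on seeded loam/sand pots and, concurrently, on young plants 2–18 cm tall. Evaluation: visual, versus controls, day 13–15.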

[4] = tested on: galium (catchweed bedstraw, Galium aparine); experiment: as above; details: Postemergence; for Plant response rating, Galium: scale 0 to 100
Outline: as §2

[5] = tested on: ragweed (common ragweed, Ambrosia elatior); experiment: as above; details: Postemergence; for Plant response rating, Ragweed: scale 0 to 100
Outline: as §2

[6] = tested on: blackgrass (Alopecurus myosuroides); experiment: as above; details: Postemergence; for Plant response rating, Blackgrass: scale 0 to 100
Outline: as §2

[7] = tested on: yellow nutsedge (Cyperus esculentus); experiment: as above; details: Postemergence; for Plant response rating, Nutsedge, Yellow: scale 0 to 100
Outline: as §2

[8] = tested on: velvetleaf (Abutilon theophrasti); experiment: as above; details: Postemergence; for Plant response rating, Velvetleaf: 250 g ai/ha, scale 0 to 100
Outline: as §2

[9] = tested on: johnsongrass (Sorghum halepense); experiment: as above; details: Postemergence; for Plant response rating, Johnsongrass: scale 0 to 100
Outline: as §2

[10] = tested on: winter wheat (Triticum aestivum); experiment: as above; details: Postemergence; for Plant response rating, Wheat: scale 0 to 100
Outline: as §2

corn (Zea mays) = experiment: as above; details: Postemergence; for Plant response rating, Corn: scale 0 to 100
Outline: as §2

[11] = tested on: large (Lg) crabgrass (Digitaria sanguinalis); experiment: as above; details: Postemergence; for Plant response rating, Crabgrass, Large: scale 0 to 100
Outline: as §2

[12] = tested on: lambsquarters (Chenopodium album); experiment: as above; details: Postemergence; for Plant response rating, Lambsquarters: scale 0 to 100
Outline: as §2

Cn1cc(C(=O)c2ccccc2)c(-c2cc(Br)cc(Br)c2)n1 [Compound 53]
90: Plant response rating, Pigweed ([3]; 250 g ai/ha) | Plant response rating, Pigweed ([3]; 500 g ai/ha) | Plant response rating, Velvetleaf [8]
85: Plant response rating (0 to 100), Pigweed ([3]; 62 g ai/ha) | Plant response rating (0 to 100), Pigweed ([3]; 125 g ai/ha)
30: Plant response rating (0 to 100), Lambsquarters ([12]; 125 g ai/ha)
60: Plant response rating (0 to 100), Velvetleaf ([8]; 62 g ai/ha)
10: Plant response rating, Galium ([4]; 500 g ai/ha) | Plant response rating (0 to 100), Ragweed ([5]; 62 g ai/ha) | Plant response rating (0 to 100), Ragweed ([5]; 125 g ai/ha) | Plant response rating, Ragweed ([5]; 250 g ai/ha) | Plant response rating, Ragweed ([5]; 500 g ai/ha)
100: Plant response rating, Lambsquarters ([12]; 500 g ai/ha)
0: Plant response rating (0 to 100), Barley ([1]; 62 g ai/ha) | Plant response rating (0 to 100), Barley ([1]; 125 g ai/ha) | Plant response rating, Barley ([1]; 250 g ai/ha) | Plant response rating, Barley ([1]; 500 g ai/ha) | Plant response rating (0 to 100), Windgrass ([2]; 62 g ai/ha) | Plant response rating (0 to 100), Windgrass ([2]; 125 g ai/ha) | Plant response rating, Windgrass ([2]; 250 g ai/ha) | Plant response rating, Windgrass ([2]; 500 g ai/ha) | Plant response rating (0 to 100), Galium ([4]; 62 g ai/ha) | Plant response rating (0 to 100), Galium ([4]; 125 g ai/ha) | Plant response rating, Galium ([4]; 250 g ai/ha) | Plant response rating (0 to 100), Blackgrass ([6]; 62 g ai/ha) | Plant response rating (0 to 100), Blackgrass ([6]; 125 g ai/ha) | Plant response rating, Blackgrass ([6]; 250 g ai/ha) | Plant response rating, Blackgrass ([6]; 500 g ai/ha) | Plant response rating (0 to 100), Nutsedge, Yellow ([7]; 62 g ai/ha) | Plant response rating (0 to 100), Nutsedge, Yellow ([7]; 125 g ai/ha) | Plant response rating, Nutsedge, Yellow ([7]; 250 g ai/ha) | Plant response rating, Nutsedge, Yellow ([7]; 500 g ai/ha) | Plant response rating (0 to 100), Johnsongrass ([9]; 62 g ai/ha) | Plant response rating (0 to 100), Johnsongrass ([9]; 125 g ai/ha) | Plant response rating, Johnsongrass ([9]; 250 g ai/ha) | Plant response rating, Johnsongrass ([9]; 500 g ai/ha) | Plant response rating (0 to 100), Wheat ([10]; 62 g ai/ha) | Plant response rating (0 to 100), Wheat ([10]; 125 g ai/ha) | Plant response rating, Wheat ([10]; 250 g ai/ha) | Plant response rating, Wheat ([10]; 500 g ai/ha) | Plant response rating (0 to 100), Crabgrass, Large ([11]; 62 g ai/ha) | Plant response rating (0 to 100), Crabgrass, Large ([11]; 125 g ai/ha) | Plant response rating, Crabgrass, Large ([11]; 250 g ai/ha) | Plant response rating, Crabgrass, Large ([11]; 500 g ai/ha)
35: Plant response rating, Lambsquarters ([12]; 250 g ai/ha)
5: Plant response rating (0 to 100), Corn (corn (Zea mays); 62 g ai/ha) | Plant response rating (0 to 100), Corn (corn (Zea mays); 125 g ai/ha) | Plant response rating, Corn (corn (Zea mays); 250 g ai/ha) | Plant response rating, Corn (corn (Zea mays); 500 g ai/ha)
75: Plant response rating (0 to 100), Velvetleaf ([8]; 125 g ai/ha)

Fc1ccccc1NN=C(c1ccccc1)c1c[nH]nc1-c1cc(Cl)cc(Cl)c1 [Compound 57]
100: Plant response rating (0 to 100), Lambsquarters ([12]; 125 g ai/ha)
15: Plant response rating (0 to 100), Ragweed ([5]; 62 g ai/ha)
0: Plant response rating (0 to 100), Barley ([1]; 31 g ai/ha) | Plant response rating (0 to 100), Barley ([1]; 62 g ai/ha) | Plant response rating (0 to 100), Barley ([1]; 125 g ai/ha) | Plant response rating, Barley ([1]; 250 g ai/ha) | Plant response rating (0 to 100), Windgrass ([2]; 62 g ai/ha) | Plant response rating (0 to 100), Windgrass ([2]; 125 g ai/ha) | Plant response rating, Windgrass ([2]; 250 g ai/ha) | Plant response rating (0 to 100), Galium ([4]; 31 g ai/ha) | Plant response rating (0 to 100), Galium ([4]; 62 g ai/ha) | Plant response rating (0 to 100), Galium ([4]; 125 g ai/ha) | Plant response rating, Galium ([4]; 250 g ai/ha) | Plant response rating (0 to 100), Blackgrass ([6]; 31 g ai/ha) | Plant response rating (0 to 100), Blackgrass ([6]; 62 g ai/ha) | Plant response rating (0 to 100), Blackgrass ([6]; 125 g ai/ha) | Plant response rating, Blackgrass ([6]; 250 g ai/ha) | Plant response rating (0 to 100), Nutsedge, Yellow ([7]; 62 g ai/ha) | Plant response rating (0 to 100), Nutsedge, Yellow ([7]; 125 g ai/ha) | Plant response rating (0 to 100), Johnsongrass ([9]; 62 g ai/ha) | Plant response rating (0 to 100), Johnsongrass ([9]; 125 g ai/ha) | Plant response rating, Johnsongrass ([9]; 250 g ai/ha) | Plant response rating (0 to 100), Wheat ([10]; 62 g ai/ha) | Plant response rating (0 to 100), Wheat ([10]; 125 g ai/ha) | Plant response rating, Wheat ([10]; 250 g ai/ha) | Plant response rating (0 to 100), Corn (corn (Zea mays); 31 g ai/ha) | Plant response rating (0 to 100), Corn (corn (Zea mays); 62 g ai/ha) | Plant response rating (0 to 100), Corn (corn (Zea mays); 125 g ai/ha) | Plant response rating, Corn (corn (Zea mays); 250 g ai/ha) | Plant response rating (0 to 100), Crabgrass, Large ([11]; 31 g ai/ha) | Plant response rating (0 to 100), Crabgrass, Large ([11]; 62 g ai/ha) | Plant response rating (0 to 100), Crabgrass, Large ([11]; 125 g ai/ha)
65: Plant response rating (0 to 100), Ragweed ([5]; 125 g ai/ha)
70: Plant response rating (0 to 100), Pigweed ([3]; 62 g ai/ha) | Plant response rating, Ragweed ([5]; 250 g ai/ha) | Plant response rating (0 to 100), Velvetleaf ([8]; 62 g ai/ha)
75: Plant response rating, Pigweed ([3]; 250 g ai/ha)
60: Plant response rating (0 to 100), Lambsquarters ([12]; 62 g ai/ha)
5: Plant response rating, Nutsedge, Yellow ([7]; 250 g ai/ha) | Plant response rating, Crabgrass, Large ([11]; 250 g ai/ha)
80: Plant response rating (0 to 100), Velvetleaf ([8]; 125 g ai/ha) | Plant response rating, Velvetleaf [8]
